Results as given in patent US20070015231A1, “Assay for protein tyrosine phosphatases” (CEPTYR, Inc., priority 2000, published 2007).

Columns and labels:
[1] = target: T1, PTP1B (Homo sapiens, UniProt P18031); assay: PTP catalytic assay of F-ERP-P dephosphorylation with alternate reaction terminator molecules (FP); type: biochemical; settings: 2 mM in terminator solution with C215S PTP1B or G104
T1 construct: PTP1B proteins (wild type and mutant forms) comprising amino acids 1-321 were expressed in E. coli; made in house; host or cells: E. coli
T1 sequence (P18031 1-321): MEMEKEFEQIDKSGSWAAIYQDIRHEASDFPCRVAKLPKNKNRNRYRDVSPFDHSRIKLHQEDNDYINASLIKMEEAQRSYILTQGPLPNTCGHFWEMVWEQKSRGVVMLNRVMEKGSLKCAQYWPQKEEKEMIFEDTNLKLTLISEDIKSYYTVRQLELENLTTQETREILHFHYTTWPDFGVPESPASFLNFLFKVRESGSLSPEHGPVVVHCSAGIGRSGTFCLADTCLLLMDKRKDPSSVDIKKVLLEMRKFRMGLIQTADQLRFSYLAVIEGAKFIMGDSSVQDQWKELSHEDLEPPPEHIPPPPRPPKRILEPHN
Protocol: The ability of each reaction terminator molecule also was assessed in the presence and absence of vanadate (a well known, nonspecific PTP inhibitor).
Assays were set up in black polypropylene plates with 20 μl of 25 mM Tris HCl pH 7.5 and 20 μl of 300 nM F-ERP-P in 25 mM Tris HCl pH 7.5, 1 mM EDTA, 1 mM DTT, 0.25 mg/ml ovalbumin (TEOD buffer). […] Plates were read using the Polarstar instrument from BMG Lab Technologies using the following settings:
As in Example 3, wells were set up to measure background fluorescence to allow proper calculation of mP values and other wells were set up without addition of terminator reagent to assess the minimum polarization value of the unbound fluorescent phosphotyrosyl peptide (F-ERP-P).

[2] = target: T2, PTP1B(C215S) (Homo sapiens, UniProt P18031, C215S); assay: PTP-1B (CS) binding assay: fluorescence polarization binding of fluorescein-labeled phosphotyrosyl peptides; settings: Table 1; midpoint of bound/unbound transition (apparent Kd)
T2 construct: PTP1B proteins (wild type and mutant forms) comprising amino acids 1-321 were expressed in E. coli; made in house; host or cells: E. coli
T2 sequence (P18031 1-321 C215S): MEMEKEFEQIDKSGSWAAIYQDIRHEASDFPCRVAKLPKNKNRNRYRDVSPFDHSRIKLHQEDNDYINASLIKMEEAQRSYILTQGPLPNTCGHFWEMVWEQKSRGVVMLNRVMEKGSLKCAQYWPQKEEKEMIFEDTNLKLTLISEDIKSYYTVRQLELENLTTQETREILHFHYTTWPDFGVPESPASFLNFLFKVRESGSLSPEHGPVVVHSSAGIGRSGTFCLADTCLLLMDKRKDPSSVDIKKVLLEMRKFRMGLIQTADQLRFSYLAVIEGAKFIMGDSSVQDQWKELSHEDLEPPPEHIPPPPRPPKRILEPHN
Protocol: (§1) Two assay parameters were measured: (1) the dynamic range of the signal (i.e. the difference between polarization values of the bound and the unbound fluorescent substrate) and (2) the midpoint of the transition between bound and unbound that represents the apparent Kd (i.e. affinity) of each binding mutant for each peptide.
(§2) Assays were set up at room temperature in black polypropylene 96 well microtiter plates (Polyfiltronics, Whatman, U. K.) by the sequential addition of 40 μl of Assay Buffer, 40 μl of diluted binding protein and 40 μl of 0.3 nM fluorescein-labeled substrate peptide. After 15 min plates were read in a Criterion Analyst™ (LJL BioSystems, Inc., Sunnyvale, Calif.) in fluorescence polarization detection mode using the parameters listed as follows:
(§3) To obtain values for background fluorescence, assays were set up as above except the fluorescein-labeled substrate was replaced with Assay Buffer. To determine the fluorescence polarization values for the unbound substrate peptide, assays were set up as above except that the 40 μl of diluted binding protein was replaced with Assay Buffer.

[3] = target: T3, PTP1B(D181A) (Homo sapiens, UniProt P18031, D181A); assay: PTP-1B (DA) binding assay: fluorescence polarization binding of fluorescein-labeled phosphotyrosyl peptides; settings: Table 2; midpoint of bound/unbound transition (apparent Kd)
T3 construct: PTP1B proteins (wild type and mutant forms) comprising amino acids 1-321 were expressed in E. coli; made in house; host or cells: E. coli
T3 sequence (P18031 1-321 D181A): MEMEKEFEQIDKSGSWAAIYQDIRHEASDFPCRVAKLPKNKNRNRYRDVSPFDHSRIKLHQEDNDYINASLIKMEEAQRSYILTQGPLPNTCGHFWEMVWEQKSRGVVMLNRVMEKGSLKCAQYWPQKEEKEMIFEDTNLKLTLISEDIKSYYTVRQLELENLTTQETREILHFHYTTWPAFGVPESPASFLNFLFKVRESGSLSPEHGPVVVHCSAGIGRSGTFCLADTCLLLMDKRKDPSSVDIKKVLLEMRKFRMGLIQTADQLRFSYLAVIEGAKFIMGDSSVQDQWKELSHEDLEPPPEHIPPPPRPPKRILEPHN
Protocol: as §1, §2, §3

[4] = target: LAR (Homo sapiens, UniProt P10586); settings: insulin receptor 1142-1152 peptide, pTyr1146; cited from earlier work
LAR, sequence (P10586 30-1907, species assumed): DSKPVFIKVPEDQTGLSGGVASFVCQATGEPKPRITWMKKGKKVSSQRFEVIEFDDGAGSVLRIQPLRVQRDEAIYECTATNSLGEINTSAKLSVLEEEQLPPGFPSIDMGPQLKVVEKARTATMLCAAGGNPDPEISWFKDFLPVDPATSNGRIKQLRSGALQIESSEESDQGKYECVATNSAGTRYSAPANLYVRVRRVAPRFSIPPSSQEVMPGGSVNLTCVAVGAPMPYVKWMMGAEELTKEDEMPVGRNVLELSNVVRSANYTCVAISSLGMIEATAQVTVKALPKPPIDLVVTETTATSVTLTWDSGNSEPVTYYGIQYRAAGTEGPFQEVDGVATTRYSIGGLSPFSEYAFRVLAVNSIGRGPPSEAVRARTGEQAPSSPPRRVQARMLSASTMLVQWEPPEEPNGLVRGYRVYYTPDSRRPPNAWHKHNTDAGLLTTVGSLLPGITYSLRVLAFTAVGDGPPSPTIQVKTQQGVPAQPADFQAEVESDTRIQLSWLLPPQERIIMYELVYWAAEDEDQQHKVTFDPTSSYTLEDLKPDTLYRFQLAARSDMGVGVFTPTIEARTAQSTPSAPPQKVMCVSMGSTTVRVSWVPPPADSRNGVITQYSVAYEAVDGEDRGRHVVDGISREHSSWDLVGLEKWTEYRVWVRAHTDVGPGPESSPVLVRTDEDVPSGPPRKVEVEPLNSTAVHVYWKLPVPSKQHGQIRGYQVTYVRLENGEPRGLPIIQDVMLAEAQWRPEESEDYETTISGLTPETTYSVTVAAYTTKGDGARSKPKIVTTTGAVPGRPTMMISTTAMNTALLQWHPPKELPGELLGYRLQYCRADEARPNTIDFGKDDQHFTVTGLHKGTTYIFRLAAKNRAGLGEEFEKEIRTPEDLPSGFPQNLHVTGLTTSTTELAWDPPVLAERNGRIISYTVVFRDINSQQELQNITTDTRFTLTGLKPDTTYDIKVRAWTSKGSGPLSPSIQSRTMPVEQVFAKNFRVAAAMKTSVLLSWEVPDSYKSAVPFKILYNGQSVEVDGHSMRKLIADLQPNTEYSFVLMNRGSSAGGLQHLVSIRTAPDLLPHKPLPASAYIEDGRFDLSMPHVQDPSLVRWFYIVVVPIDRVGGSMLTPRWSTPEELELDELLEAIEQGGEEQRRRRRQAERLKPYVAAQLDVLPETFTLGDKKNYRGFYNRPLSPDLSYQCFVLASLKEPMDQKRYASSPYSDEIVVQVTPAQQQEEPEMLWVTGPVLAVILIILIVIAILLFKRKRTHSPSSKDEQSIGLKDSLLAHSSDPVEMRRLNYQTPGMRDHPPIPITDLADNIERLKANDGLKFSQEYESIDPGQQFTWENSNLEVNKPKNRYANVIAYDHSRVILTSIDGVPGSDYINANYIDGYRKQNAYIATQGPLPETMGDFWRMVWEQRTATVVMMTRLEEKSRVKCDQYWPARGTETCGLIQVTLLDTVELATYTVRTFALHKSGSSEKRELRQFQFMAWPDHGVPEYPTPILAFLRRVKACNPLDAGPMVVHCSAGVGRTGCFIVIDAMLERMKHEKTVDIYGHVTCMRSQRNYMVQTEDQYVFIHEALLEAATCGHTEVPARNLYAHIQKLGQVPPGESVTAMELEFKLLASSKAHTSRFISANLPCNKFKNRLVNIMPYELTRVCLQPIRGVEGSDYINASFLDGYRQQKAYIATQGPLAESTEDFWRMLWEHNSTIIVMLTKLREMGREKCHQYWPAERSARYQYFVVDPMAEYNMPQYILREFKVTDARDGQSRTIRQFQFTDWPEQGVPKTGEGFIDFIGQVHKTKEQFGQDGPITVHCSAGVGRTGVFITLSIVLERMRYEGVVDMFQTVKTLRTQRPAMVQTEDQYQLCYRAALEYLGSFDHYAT

[5] = target: fluorescein-labeled EGF receptor derived phosphopeptide D-A-D-E-pY-L-NH2 (human); assay: fluorescence polarization, mutant PTP titrated against fluorescein-labeled peptide in solution
[6] = target: fluorescein-labeled insulin receptor derived phosphopeptide T-R-D-I-pY-E-T-D-Y-Y-R (human); assay: as above
[7] = target: fluorescein-labeled EGF receptor derived phosphopeptide D-A-D-E-pY-L-NH2 (human); assay: fluorescence polarization, mutant PTP titrated against fluorescein-labeled peptide in solution (midpoint = apparent Kd)
[8] = target: fluorescein-labeled insulin receptor derived phosphopeptide T-R-D-I-pY-E-T-D-Y-Y-R (human); assay: as above
[9] = target: T4, C215S PTP1B (Homo sapiens, UniProt P18031, C215S); assay: Inhibition of fluorescent EGF receptor peptide binding to CS substrate binding mutant (FP); settings: Table 3; fluorescein-labeled EGF receptor peptide
T4 construct: PTP1B proteins (wild type and mutant forms) comprising amino acids 1-321 were expressed in E. coli; made in house; host or cells: E. coli
T4 sequence (P18031 1-321 C215S): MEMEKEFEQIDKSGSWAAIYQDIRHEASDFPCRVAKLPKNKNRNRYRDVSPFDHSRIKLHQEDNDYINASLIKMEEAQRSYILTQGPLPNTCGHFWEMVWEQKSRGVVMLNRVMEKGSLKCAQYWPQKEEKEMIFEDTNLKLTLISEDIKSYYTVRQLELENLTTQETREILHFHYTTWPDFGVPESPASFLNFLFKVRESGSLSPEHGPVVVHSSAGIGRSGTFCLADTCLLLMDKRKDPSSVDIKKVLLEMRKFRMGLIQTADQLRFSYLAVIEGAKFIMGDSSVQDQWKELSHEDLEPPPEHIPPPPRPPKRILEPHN
Protocol: (§4) To the test agents was added 40 μl of 3 nM CS or DA binding mutant of PTP1B in Assay Buffer. Plates were shaken for 30 sec to mix the two solutions. After another 12.5 minutes 40 μl of 3 nM fluorescein-labeled EGF receptor peptide was added and the solutions mixed for 30 sec. After 12.5 minutes of incubation the plates were read as described in Example 3.

[10] = target: T5, D181A PTP1B (Homo sapiens, UniProt P18031, D181A); assay: Inhibition of fluorescent EGF receptor peptide binding to DA substrate binding mutant (FP); settings: Table 3; fluorescein-labeled EGF receptor peptide; read-out: D181A IC50
T5 construct: PTP1B proteins (wild type and mutant forms) comprising amino acids 1-321 were expressed in E. coli; made in house; host or cells: E. coli
T5 sequence (P18031 1-321 D181A): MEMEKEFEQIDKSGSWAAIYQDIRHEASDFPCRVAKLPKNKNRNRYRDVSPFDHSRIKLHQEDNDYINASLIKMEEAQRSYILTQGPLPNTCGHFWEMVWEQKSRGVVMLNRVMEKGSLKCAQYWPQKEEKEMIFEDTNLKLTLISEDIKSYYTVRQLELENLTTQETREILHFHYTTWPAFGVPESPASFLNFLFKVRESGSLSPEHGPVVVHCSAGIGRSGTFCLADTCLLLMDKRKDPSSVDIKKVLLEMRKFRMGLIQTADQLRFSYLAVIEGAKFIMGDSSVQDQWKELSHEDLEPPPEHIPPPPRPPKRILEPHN
Protocol: as §4

Q: For `[Na+].[Na+].[Na+].[O]=[V]([O-])([O-])[O-]` [sodium ortho vanadate], which “effect of inclusion in the terminator mixes on observed endpoints” value [1] is on record?
A: The value was “did not appear to have any additive effect”.

Q: Which EC50 [2] does the source give for `CC[C@H](C)[C@H](NC(=O)[C@H](CC(=O)O)NC(=O)[C@H](CCCNC(=N)N)NC(=O)[C@@H](NC(=O)c1ccc2c(c1)C(=O)OC21c2ccc(O)cc2Oc2cc(O)ccc21)[C@@H](C)O)C(=O)N[C@@H](Cc1ccc(OP(=O)(O)O)cc1)C(=O)N[C@@H](CCC(=O)O)C(=O)N[C@H](C(=O)N[C@@H](CC(=O)O)C(=O)N[C@@H](Cc1ccc(O)cc1)C(=O)N[C@@H](Cc1ccc(O)cc1)C(=O)N[C@@H](CCCNC(=N)N)C(=O)O)[C@@H](C)O` [F-IR-P, T-R-D-1-pY-E-T-D-Y-Y-R] here?
A: Its EC50 is 1.16 nM.

Q: And the EC50 [3]?
A: The EC50 was 0.508 nM.

Q: What about the Km [4] of the same compound?
A: Its Km is 27 µM.

Q: What does the source list for “PTP1B(D181A), amino acids 1-321 (from UniProt P18031 1-321) (enzyme)”?
A: Peak Mp [5]: 269 mP; Peak Mp [6]: 132 mP; EC50 [7]: 1.07 nM; EC50 [8]: 0.508 nM

Q: Which IC50 [9] does the source give for `N[C@@H](Cc1ccc(OP(=O)(O)O)cc1)C(=O)O` [P-Tyr, phosphotyrosine] here?
A: The IC50 was 150000 nM.

Q: What about the IC50 [10] of the same compound?
A: The IC50 was 120000 nM.
